# Experimental data as given in US11053204B2, “Pyrimidinyloxy benzene derivatives as herbicides” (FMC Corporation, priority 2015, dated 2021).
# Columns and labels:
# Assay type in all cases: in vivo
# [1] = system: blackgrass (Alopecurus myosuroides); test: Test C preemergence, plant response rating; details: Alopecurus myosuroides, pre-emergence, Preemergence
# Summary of the method: (§1)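 Pre-emergence: seeds sown in loam soil–sand blend or silt loam and sprayed with test chemicals in a non-phytotoxic solvent mixture with surfactant. Post-emergence: plants 2 to 18 cm (1- to 4-leaf stage) in peat-based potting medium, same formulation. Greenhouse 13 to 15 d; visual rating 0 (no effect) to 100 (complete control) versus controls.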
# corn (Zea mays) [2] = test: Test C preemergence, plant response rating; details: Zea mays, pre-emergence, Preemergence
# Summary of the method: as §1
# [3] = system: crabgrass, large (large crabgrass, Digitaria sanguinalis); test: Test C preemergence, plant response rating; details: Digitaria sanguinalis, pre-emergence, Preemergence
# Summary of the method: as §1
# [4] = system: foxtail, giant (giant foxtail, Setaria faberii); test: Test C preemergence, plant response rating; details: Setaria faberi, pre-emergence, Preemergence
# Summary of the method: as §1
# [5] = system: lambsquarters (Chenopodium album); test: Test C preemergence, plant response rating; details: Chenopodium album, pre-emergence, Preemergence
# Summary of the method: as §1
# [6] = system: morningglory (Ipomoea coccinea); test: Test C preemergence, plant response rating; details: Ipomoea, pre-emergence, Preemergence
# Summary of the method: as §1
# [7] = system: nutsedge, yellow (yellow nutsedge, Cyperus esculentus); test: Test C preemergence, plant response rating; details: Cyperus, pre-emergence, Preemergence
# Summary of the method: as §1
# [8] = system: oilseed rape (Brassica napus); test: Test C preemergence, plant response rating; details: Brassica napus, pre-emergence, Preemergence
# Summary of the method: as §1
# [9] = system: ryegrass, Italian (Italian ryegrass, Lolium multiflorum); test: Test C preemergence, plant response rating; details: Lolium multiflorum, pre-emergence, Preemergence
# Summary of the method: as §1
# soybean (Glycine max) [10] = test: Test C preemergence, plant response rating; details: Glycine max, pre-emergence, Preemergence
# Summary of the method: as §1
# [11] = system: velvetleaf (Abutilon theophrasti); test: Test C preemergence, plant response rating; details: Abutilon theophrasti, pre-emergence, Preemergence
# Summary of the method: as §1
# [12] = system: waterhemp (common waterhemp, Amaranthus rudis); test: Test C preemergence, plant response rating; details: Amaranthus tuberculatus, pre-emergence, Preemergence
# Summary of the method: as §1
# [13] = system: wheat (winter wheat, Triticum aestivum); test: Test C preemergence, plant response rating; details: Triticum aestivum, pre-emergence, Preemergence
# Summary of the method: as §1
# corn (Zea mays) [14] = test: Test C postemergence, plant response rating; details: Zea mays, post-emergence
# Summary of the method: as §1
# [15] = system: crabgrass, large (large crabgrass, Digitaria sanguinalis); test: Test C postemergence, plant response rating; details: Digitaria sanguinalis, post-emergence
# Summary of the method: as §1
# [16] = system: foxtail, giant (giant foxtail, Setaria faberii); test: Test C postemergence, plant response rating; details: Setaria faberi, post-emergence
# Summary of the method: as §1
# [17] = system: galium (catchweed bedstraw, Galium aparine); test: Test C postemergence, plant response rating; details: Galium, post-emergence
# Summary of the method: as §1
# kochia (Kochia scoparia) = test: Test C postemergence, plant response rating; details: Bassia scoparia, post-emergence
# Summary of the method: as §1
# [18] = system: oilseed rape (Brassica napus); test: Test C postemergence, plant response rating; details: Brassica napus, post-emergence
# Summary of the method: as §1
# soybean (Glycine max) [19] = test: Test C postemergence, plant response rating; details: Glycine max, post-emergence
# Summary of the method: as §1
# [20] = system: waterhemp (common waterhemp, Amaranthus rudis); test: Test C postemergence, plant response rating
# Summary of the method: as §1
# [21] = 62 g ai/ha, scale 0 to 100 (0 no effect, 100 complete control)
# [22] = 125 g ai/ha, scale 0 to 100 (0 no effect, 100 complete control)
smiles,measurement,setting,value
"O=C(CCC(F)(F)F)c1c(Cl)cccc1Oc1ncc(Cl)cn1 [Compound 107, 1-[2-chloro-6-[(5-chloro-2-pyrimidinyl)oxy]phenyl]-4,4,4-trifluoro-1-butanone]",pest or weed control at 125 g/ha,"[1]; 125 g ai/ha, scale of 0 to 100",90%
same,pest or weed control at 16 g/ha,"[1]; 16 g ai/ha, scale 0 to 100",60%
same,pest or weed control at 31 g/ha,"[1]; 31 g ai/ha, scale 0 to 100",90%
same,pest or weed control at 62 g/ha,"[1]; 62 g ai/ha, scale 0 to 100",90%
same,"Corn plant response rating (crop injury, 0 = no effect, 100 = complete kill) at 125 g/ha","corn (Zea mays) [2]; 125 g ai/ha, scale of 0 to 100",45%
same,"Corn plant response rating (crop injury, 0 = no effect, 100 = complete kill) at 16 g/ha","corn (Zea mays) [2]; 16 g ai/ha, scale 0 to 100",0%
same,"Corn plant response rating (crop injury, 0 = no effect, 100 = complete kill) at 31 g/ha","corn (Zea mays) [2]; 31 g ai/ha, scale 0 to 100",0%
same,"Corn plant response rating (crop injury, 0 = no effect, 100 = complete kill) at 62 g/ha","corn (Zea mays) [2]; 62 g ai/ha, scale 0 to 100",15%
same,pest or weed control at 125 g/ha,"[3]; 125 g ai/ha, scale of 0 to 100",100%
same,pest or weed control at 16 g/ha,"[3]; 16 g ai/ha, scale 0 to 100",98%
same,pest or weed control at 31 g/ha,"[3]; 31 g ai/ha, scale 0 to 100",98%
same,pest or weed control at 62 g/ha,"[3]; 62 g ai/ha, scale 0 to 100",100%
same,pest or weed control at 125 g/ha,"[4]; 125 g ai/ha, scale of 0 to 100",98%
same,pest or weed control at 31 g/ha,"[4]; 31 g ai/ha, scale 0 to 100",98%
same,pest or weed control at 62 g/ha,"[4]; 62 g ai/ha, scale 0 to 100",98%
same,pest or weed control at 125 g/ha,"[5]; 125 g ai/ha, scale of 0 to 100",95%
same,pest or weed control at 31 g/ha,"[5]; 31 g ai/ha, scale 0 to 100",75%
same,pest or weed control at 62 g/ha,"[5]; 62 g ai/ha, scale 0 to 100",85%
same,pest or weed control at 125 g/ha,"[6]; 125 g ai/ha, scale of 0 to 100",85%
same,pest or weed control at 31 g/ha,"[6]; 31 g ai/ha, scale 0 to 100",0%
same,pest or weed control at 62 g/ha,"[6]; 62 g ai/ha, scale 0 to 100",40%
same,pest or weed control at 125 g/ha,"[7]; 125 g ai/ha, scale of 0 to 100",0%
same,pest or weed control at 31 g/ha,"[7]; 31 g ai/ha, scale 0 to 100",0%
same,pest or weed control at 62 g/ha,"[7]; 62 g ai/ha, scale 0 to 100",0%
same,plant injury at 125 g/ha,"[8]; 125 g ai/ha, scale of 0 to 100",98%
same,plant injury at 31 g/ha,"[8]; 31 g ai/ha, scale 0 to 100",40%
same,plant injury at 62 g/ha,"[8]; 62 g ai/ha, scale 0 to 100",85%
same,pest or weed control at 125 g/ha,"[9]; 125 g ai/ha, scale of 0 to 100",90%
same,pest or weed control at 31 g/ha,"[9]; 31 g ai/ha, scale 0 to 100",35%
same,pest or weed control at 62 g/ha,"[9]; 62 g ai/ha, scale 0 to 100",70%
same,plant injury at 125 g/ha,"soybean (Glycine max) [10]; 125 g ai/ha, scale of 0 to 100",45%
same,plant injury at 31 g/ha,"soybean (Glycine max) [10]; 31 g ai/ha, scale 0 to 100",20%
same,plant injury at 62 g/ha,"soybean (Glycine max) [10]; 62 g ai/ha, scale 0 to 100",35%
same,pest or weed control at 125 g/ha,"[11]; 125 g ai/ha, scale of 0 to 100",98%
same,pest or weed control at 31 g/ha,"[11]; 31 g ai/ha, scale 0 to 100",75%
same,pest or weed control at 62 g/ha,"[11]; 62 g ai/ha, scale 0 to 100",98%
same,pest or weed control at 125 g/ha,"[12]; 125 g ai/ha, scale of 0 to 100",100%
same,pest or weed control at 31 g/ha,"[12]; 31 g ai/ha, scale 0 to 100",98%
same,pest or weed control at 62 g/ha,"[12]; 62 g ai/ha, scale 0 to 100",100%
same,plant injury at 125 g/ha,"[13]; 125 g ai/ha, scale of 0 to 100",35%
same,plant injury at 31 g/ha,"[13]; 31 g ai/ha, scale 0 to 100",10%
same,plant injury at 62 g/ha,"[13]; 62 g ai/ha, scale 0 to 100",15%
same,"Corn plant response rating (crop injury, 0 = no effect, 100 = complete kill) at 16 g/ha","corn (Zea mays) [14]; 16 g ai/ha, scale of 0 to 100",10%
same,"Corn plant response rating (crop injury, 0 = no effect, 100 = complete kill) at 31 g/ha","corn (Zea mays) [14]; 31 g ai/ha, scale 0 to 100",20%
same,plant injury at 62 g/ha,corn (Zea mays) [14]; [21],20%
same,plant injury at 125 g/ha,corn (Zea mays) [14]; [22],30%
same,pest or weed control at 16 g/ha,"[15]; 16 g ai/ha, scale of 0 to 100",10%
same,pest or weed control at 31 g/ha,"[15]; 31 g ai/ha, scale 0 to 100",10%
same,pest or weed control at 62 g/ha,[15]; [21],30%
same,pest or weed control at 125 g/ha,[15]; [22],60%
same,pest or weed control at 16 g/ha,"[16]; 16 g ai/ha, scale of 0 to 100",10%
same,pest or weed control at 31 g/ha,"[16]; 31 g ai/ha, scale 0 to 100",10%
same,pest or weed control at 62 g/ha,[16]; [21],20%
same,pest or weed control at 125 g/ha,[16]; [22],25%
same,pest or weed control at 16 g/ha,"[17]; 16 g ai/ha, scale of 0 to 100",75%
same,pest or weed control at 31 g/ha,"[17]; 31 g ai/ha, scale 0 to 100",80%
same,pest or weed control at 62 g/ha,[17]; [21],90%
same,pest or weed control at 125 g/ha,[17]; [22],95%
same,pest or weed control at 16 g/ha,"kochia (Kochia scoparia); 16 g ai/ha, scale of 0 to 100",80%
same,pest or weed control at 31 g/ha,"kochia (Kochia scoparia); 31 g ai/ha, scale 0 to 100",85%
same,pest or weed control at 62 g/ha,kochia (Kochia scoparia); [21],95%
same,pest or weed control at 125 g/ha,kochia (Kochia scoparia); [22],98%
same,plant injury at 16 g/ha,"[18]; 16 g ai/ha, scale of 0 to 100",65%
same,plant injury at 31 g/ha,"[18]; 31 g ai/ha, scale 0 to 100",80%
same,plant injury at 62 g/ha,[18]; [21],95%
same,plant injury at 125 g/ha,[18]; [22],98%
same,plant injury at 16 g/ha,"soybean (Glycine max) [19]; 16 g ai/ha, scale of 0 to 100",50%
same,plant injury at 31 g/ha,"soybean (Glycine max) [19]; 31 g ai/ha, scale 0 to 100",40%
same,plant injury at 62 g/ha,soybean (Glycine max) [19]; [21],95%
same,plant injury at 125 g/ha,soybean (Glycine max) [19]; [22],95%
same,"Plant response rating, Waterhemp","[20]; 16 g ai/ha, scale of 0 to 100",95
same,"Plant response rating, Waterhemp","[20]; 31 g ai/ha, scale 0 to 100",98
same,Waterhemp plant response rating,[20]; [22],100
